Results from ChEMBL document CHEMBL4219129, “Design, synthesis and biological evaluation of spiropyrimidinetriones oxazolidinone derivatives as antibacterial agents” (2018).
Values after ≈ are worked out from the molar mass of the structure shown.

Tests used:
Format in all cases: functional
Staphylococcus aureus [1] = experiment: Antibacterial activity against methicillin-resistant Staphylococcus aureus DB-00026
Staphylococcus aureus [2] = experiment: Antibacterial activity against methicillin-resistant Staphylococcus aureus USA300 BAA-1556
[3] = test system: Staphylococcus epidermidis; experiment: Antibacterial activity against linezolid-resistant Staphylococcus epidermidis 1089191
Staphylococcus aureus [4] = experiment: Antibacterial activity against methicillin-resistant Staphylococcus aureus 1201984
Staphylococcus aureus [5] = experiment: Antibacterial activity against Staphylococcus aureus Mu50 ATCC 700699
Staphylococcus aureus [6] = experiment: Antibacterial activity against methicillin-resistant Staphylococcus aureus 562
[7] = test system: Staphylococcus epidermidis; experiment: Antibacterial activity against Staphylococcus epidermidis ATCC 12228
Staphylococcus aureus [8] = experiment: Antibacterial activity against PVL positive Staphylococcus aureus
Staphylococcus aureus [9] = experiment: Antibacterial activity against Staphylococcus aureus FDA 209P
Staphylococcus aureus [10] = experiment: Antibacterial activity against […] Staphylococcus aureus ATCC 13709 SMITH
[11] = test system: Staphylococcus epidermidis; experiment: Antibacterial activity against linezolid-resistant Staphylococcus epidermidis 1117174
Escherichia coli [12] = experiment: Antibacterial activity against Escherichia coli MG1655; conditions: K-12 substr. MG1655
Staphylococcus aureus [13] = experiment: Antibacterial activity against linezolid-resistant Staphylococcus aureus O-128
Staphylococcus aureus [14] = experiment: Antibacterial activity against Staphylococcus aureus ATCC 29213
[15] = test system: Staphylococcus epidermidis; experiment: Antibacterial activity against methicillin-resistant Staphylococcus epidermidis ATCC 35984
Escherichia coli [16] = experiment: Antibacterial activity against TolC-deficient Escherichia coli

Row | SMILES | MIC (Staphylococcus aureus [1]) | MIC (Staphylococcus aureus [2]) | MIC [3] | MIC (Staphylococcus aureus [4]) | MIC (Staphylococcus aureus [5]) | MIC (Staphylococcus aureus [6]) | MIC [7] | MIC (Staphylococcus aureus [8]) | MIC (Staphylococcus aureus [9]) | MIC (Staphylococcus aureus [10]) | MIC [11] | MIC (Escherichia coli [12]) | MIC (Staphylococcus aureus [13]) | MIC (Staphylococcus aureus [14]) | MIC [15] | MIC (Escherichia coli [16])
1 | CS(=O)(=O)NC[C@H]1CN(c2ccc(-c3ccc4c(c3)CC3(C(=O)NC(=O)NC3=O)C3COCCN43)c(F)c2)C(=O)O1 (some centres not stated) | 32 µg/mL (≈ 54.5 µM) | 32 µg/mL (≈ 54.5 µM) | > 32 µg/mL | 32 µg/mL (≈ 54.5 µM) | 16 µg/mL (≈ 27.2 µM) | 32 µg/mL (≈ 54.5 µM) | 16 to 32 µg/mL (≈ 27.2 to 54.5 µM) | 32 µg/mL (≈ 54.5 µM) | 32 µg/mL (≈ 54.5 µM) | > 32 µg/mL | > 32 µg/mL | > 32 µg/mL | > 32 µg/mL | 32 µg/mL (≈ 54.5 µM) | 16 to 32 µg/mL (≈ 27.2 to 54.5 µM) | 32 µg/mL (≈ 54.5 µM)
2 | CS(=O)(=O)NC[C@H]1CN(c2ccc(-c3ccc4c(c3)CC3(C(=O)NC(=O)NC3=O)C3CCCN43)c(F)c2)C(=O)O1 (some centres not stated) | 16 µg/mL (≈ 28 µM) | 16 µg/mL (≈ 28 µM) | > 32 µg/mL | 8 µg/mL (≈ 14 µM) | 8 µg/mL (≈ 14 µM) | 8 µg/mL (≈ 14 µM) | 8 µg/mL (≈ 14 µM) | 8 µg/mL (≈ 14 µM) | 16 µg/mL (≈ 28 µM) | > 32 µg/mL | 32 µg/mL (≈ 56 µM) | > 32 µg/mL | 32 µg/mL (≈ 56 µM) | 16 µg/mL (≈ 28 µM) | 4 µg/mL (≈ 7 µM) | 16 µg/mL (≈ 28 µM)
3 | COC(=O)NC[C@H]1CN(c2ccc(-c3ccc4c(c3)CC3(C(=O)NC(=O)NC3=O)C3COCCN43)c(F)c2)C(=O)O1 (some centres not stated) | 8 µg/mL (≈ 14.1 µM) | 8 µg/mL (≈ 14.1 µM) | > 32 µg/mL | 16 µg/mL (≈ 28.2 µM) | 4 µg/mL (≈ 7.05 µM) | 4 µg/mL (≈ 7.05 µM) | 4 µg/mL (≈ 7.05 µM) | 8 µg/mL (≈ 14.1 µM) | 8 µg/mL (≈ 14.1 µM) | > 32 µg/mL | 32 µg/mL (≈ 56.4 µM) | > 32 µg/mL | 32 µg/mL (≈ 56.4 µM) | 4 µg/mL (≈ 7.05 µM) | 2 µg/mL (≈ 3.52 µM) | 4 µg/mL (≈ 7.05 µM)
4 | CC(=O)NC[C@H]1CN(c2ccc3c(c2)CC2(C(=O)NC(=O)NC2=O)C2COCCN32)C(=O)O1 (some centres not stated) | > 32 µg/mL | > 32 µg/mL | > 32 µg/mL | > 32 µg/mL | > 32 µg/mL | > 32 µg/mL | > 32 µg/mL | > 32 µg/mL | > 32 µg/mL | > 32 µg/mL | 32 µg/mL (≈ 70 µM) | > 32 µg/mL | > 32 µg/mL | > 32 µg/mL | > 32 µg/mL | > 32 µg/mL
5 | CCC(=O)NC[C@H]1CN(c2ccc(-c3ccc4c(c3)CC3(C(=O)NC(=O)NC3=O)C3CCCN43)c(F)c2)C(=O)O1 (some centres not stated) | 8 µg/mL (≈ 14.6 µM) | 16 µg/mL (≈ 29.1 µM) | > 32 µg/mL | 8 µg/mL (≈ 14.6 µM) | 8 µg/mL (≈ 14.6 µM) | 4 µg/mL (≈ 7.28 µM) | 8 µg/mL (≈ 14.6 µM) | 8 µg/mL (≈ 14.6 µM) | 8 µg/mL (≈ 14.6 µM) | 32 µg/mL (≈ 58.2 µM) | 32 µg/mL (≈ 58.2 µM) | > 32 µg/mL | 32 µg/mL (≈ 58.2 µM) | 16 µg/mL (≈ 29.1 µM) | 4 µg/mL (≈ 7.28 µM) | 8 µg/mL (≈ 14.6 µM)
6 | CCOC(=O)NC[C@H]1CN(c2ccc(-c3ccc4c(c3)CC3(C(=O)NC(=O)NC3=O)C3COCCN43)c(F)c2)C(=O)O1 (some centres not stated) | 16 µg/mL (≈ 27.5 µM) | 16 µg/mL (≈ 27.5 µM) | > 32 µg/mL | 32 µg/mL (≈ 55 µM) | 8 µg/mL (≈ 13.8 µM) | 8 µg/mL (≈ 13.8 µM) | 8 µg/mL (≈ 13.8 µM) | 32 µg/mL (≈ 55 µM) | 16 µg/mL (≈ 27.5 µM) | > 32 µg/mL | 32 µg/mL (≈ 55 µM) | > 32 µg/mL | > 32 µg/mL | 16 µg/mL (≈ 27.5 µM) | 8 µg/mL (≈ 13.8 µM) | 8 µg/mL (≈ 13.8 µM)
7 | CC(=O)NC[C@H]1CN(c2ccc(-c3ccc4c(c3)CC3(C(=O)NC(=O)NC3=O)C3COCCN43)c(F)c2)C(=O)O1 (some centres not stated) | 8 µg/mL (≈ 14.5 µM) | 8 µg/mL (≈ 14.5 µM) | > 32 µg/mL | 16 µg/mL (≈ 29 µM) | 4 µg/mL (≈ 7.25 µM) | 4 µg/mL (≈ 7.25 µM) | 4 µg/mL (≈ 7.25 µM) | 8 µg/mL (≈ 14.5 µM) | 8 µg/mL (≈ 14.5 µM) | 32 µg/mL (≈ 58 µM) | 32 µg/mL (≈ 58 µM) | > 32 µg/mL | 32 µg/mL (≈ 58 µM) | 4 µg/mL (≈ 7.25 µM) | 2 µg/mL (≈ 3.63 µM) | 2 µg/mL (≈ 3.63 µM)
